Reference: patent publication US12390437B2, “Itaconic acid derivatives and uses thereof intreating an inflammatory disease or a disease associated with an undesirable immune response” (Sitryx Therapeutics Limited, priority 2019, dated 2025)
pIC50: −log10 of the molar value.

How the values were obtained:
hepatocytes [1] = assay: Hepatocyte stability assay (human); type: in vitro ADME; conditions: 10 μM compound, 0.5×10^6 cells/mL, 60 minutes
From the text: (§1) Defrosted cryo-preserved hepatocytes (viability >70%) are used to determine the metabolic stability of a compound via calculation of intrinsic clearance (Clint; a measure of the removal of a compound from the liver in the absence of blood flow and cell binding). Clearance data are particularly important for in vitro work as they can be used in combination with in vivo data to predict the half-life and oral bioavailability of a drug.
(§2) The metabolic stability in hepatocytes assay involves a time-dependent reaction using both positive and negative controls. The cells must be pre-incubated at 37° C. then spiked with test compound (and positive control); samples taken at pre-determined time intervals are analysed to monitor the change in concentration of the initial drug compound over 60 minutes. A buffer incubation reaction (with no hepatocytes present) acts as a negative control and two cocktail solutions, containing compounds with known high and low clearance values (verapamil/7-hydroxycoumarin and propranolol/diltiazem), act as positive controls. • 1. The assay is run with a cell concentration of 0.5×10^6 cells/mL in Leibovitz buffer. • 2. All compounds and controls are run in duplicate. • 3. Compound concentration is 10 μM. • 4. All compounds and controls are incubated with both cells and buffer to show turnover is due to hepatic metabolism. • 5. All wells on the incubation plate will have 326.7 μL of either cells or buffer added. • 6. Prior to assay, cell and buffer-only incubation plates are preincubated for 10 mins at 37° C. • 7. The assay is initiated by adding compounds, 3.3 μL of 1 mM in 10% DMSO-90% Buffer; final DMSO concentration is 0.1%. • 8. Samples are taken at regular timepoints (0, 5, 10, 20, 40, 60 min) until 60 mins. • 9. Sample volume is 40 μL and it is added to 160 μL of crash solvent (acetonitrile with internal standard) and stored on ice. • 10. At the end of the assay, the crash plates are centrifuged at 3500 rpm for 20 mins at 4° C. • 11. 80 μL of clear supernatant is removed and mixed with 80 μL of deionised water before being analysed by LC-MS/MS.
(§3) Raw LC-MS/MS data are exported to, and analysed in, Microsoft Excel for determination of intrinsic clearance. The percentage remaining of a compound is monitored using the peak area of the initial concentration as 100%. Intrinsic clearance and half-life values are calculated using a graph of the natural log of percentage remaining versus the time of reaction in minutes. Half-life (min) and intrinsic clearance (Clint in μL min^−1 10^−6 cells) values are calculated using the gradient of the graph (the elimination rate constant, k) and Equations 1 and 2.

[2] = Hepatocyte stability assay (human); type: in vitro ADME; conditions: cryopreserved hepatocytes, 10 μM compound, 0.5×10^6 cells/mL, 60 minutes, read-out: T½
From the text: as §1, §2, §3

[3] = system: IL-6 cytokine output from THP-1s; assay: THP-1 AlphaLISA IL-6 cytokine assay; type: cell-based, human; conditions: Homo sapiens; PMA-differentiated THP-1 cells, LPS 24 hr then Nigericin 1 hour
Method in brief: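 PMA-differentiated THP-1 cells (72 h) were pre-incubated 30 min with compound, then LPS-primed 24 h and pulsed with nigericin for 1 h at 37 °C. Supernatant cytokine was quantified by AlphaLISA; % inhibition was normalised to +/−LPS plate controls and IC50 taken from concentration-response curves.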

hepatocytes [4] = assay: Hepatocyte stability assay (mouse); type: in vitro ADME; conditions: 10 μM compound, 0.5×10^6 cells/mL, 60 minutes
From the text: as §1, §2, §3

[5] = Hepatocyte stability assay (mouse); type: in vitro ADME; conditions: cryopreserved hepatocytes, 10 μM compound, 0.5×10^6 cells/mL, 60 minutes, read-out: T½
From the text: as §1, §2, §3

[6] = Mouse pharmacokinetic study, intravenous dosing; type: in vivo; conditions: male, C57BL/6, mouse, iv, plasma, 10 mg/kg i.v., read-out: Parent compound concentration following intravenous administration
Method in brief: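 Male C57BL/6 mice (6-8 weeks, fed ad libitum) received 10 mg/kg IV by tail vein in 10% DMSO/HP-β-CD vehicle, or 100 mg/kg by oral gavage in DMSO/HPMC/Tween 80. Facial-vein blood was taken at 9 time points (N=3 each) into K2EDTA; plasma concentrations were measured by LC-MS/MS.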

Row | CIint (μL min^−1 10^−6 cells) (hepatocytes [1]) | half-life at 10 μM [2] | pIC50 [3] | CIint (μL min^−1 10^−6 cells) (hepatocytes [4]) | half-life at 10 μM [5] | concentration at 0.05 h [6] | concentration at 0.133 h [6] | concentration at 0.25 h [6] | concentration at 0.5 h [6] | concentration at 1 h [6] | concentration at 2 h [6] | concentration at 4 h [6] | concentration at 6 h [6] | concentration at 8 h [6] | Structure (SMILES)
1 | 109 μL min^−1 10^−6 cells | 13 min | 5.26 | 138 μL min^−1 10^−6 cells | 10 min |  |  |  |  |  |  |  |  |  | C=C(CC(=O)OCCCCCCCC)C(=O)OCC(=O)O [Example 49, 2-((2-methylene-4-(octyloxy)-4-oxobutanoyl)oxy)acetic acid]
2 | 243 μL min^−1 10^−6 cells | 6 min | 5.28 | 158 μL min^−1 10^−6 cells | 9 min |  |  |  |  |  |  |  |  |  | C=C(CC(=O)OCCCCCCCC)C(=O)OCCC(=O)O [Example 80, 3-((2-methylene-4-(octyloxy)-4-oxobutanoyl)oxy)propanoic Acid]
3 | 15 μL min^−1 10^−6 cells | 91 min | 4.72 | 52 μL min^−1 10^−6 cells | 27 min | 17600 ng/mL | 8350 ng/mL | 2780 ng/mL | 752 ng/mL | 69 ng/mL | 2.2 ng/mL | 1.4 ng/mL | 1.6 ng/mL | < 0.8 ng/mL | C=C(CC(=O)OC1CCCCCCC1)C(=O)OCCC(=O)O [Example 82, 3-((4-(cyclooctyloxy)-2-methylene-4-oxobutanoyl)oxy)propanoic acid]
4 | 86 μL min^−1 10^−6 cells | 16 min | 4.66 | 220 μL min^−1 10^−6 cells | 6 min | 5580 ng/mL |  | 1030 ng/mL | 217 ng/mL | 34 ng/mL | 6.5 ng/mL | < 2 ng/mL | < 2 ng/mL |  | C=C(CC(=O)O[C@@H](C)CCCCCC)C(=O)OCCC(=O)O [Example 84, (S)-3-((2-methylene-4-(octan-2-yloxy)-4-oxobutanoyl)oxy)propanoic acid]
5 | 11 μL min^−1 10^−6 cells | 136 min | 4.00 | 21 μL min^−1 10^−6 cells | 65 min |  |  |  |  |  |  |  |  |  | C=C(CC(=O)OC1CCCCC1)C(=O)OCCC(=O)O [Example 87, 3-((4-(cyclohexyloxy)-2-methylene-4-oxobutanoyl)oxy)propanoic acid]
6 | 4 μL min^−1 10^−6 cells | 352 min | 4.47 | 29 μL min^−1 10^−6 cells | 48 min |  |  |  |  |  |  |  |  |  | C=C(CC(=O)OC1CCCCC1)C(=O)OCC(=O)O [Example 91, 2-((4-(cyclohexyloxy)-2-methylene-4-oxobutanoyl)oxy)acetic acid]
7 | 42 μL min^−1 10^−6 cells | 33 min |  | 259 μL min^−1 10^−6 cells | 5 min | 6690 ng/mL | 1250 ng/mL | 534 ng/mL | 211 ng/mL | 18 ng/mL | < 4 ng/mL | < 4 ng/mL | < 4 ng/mL | < 4 ng/mL | C=C(CC(=O)O[C@@H](C)CCCCCC)C(=O)OCc1nn[nH]n1 [Example 164, (S)-1-(2H-tetrazol-5-yl)methyl 4-octan-2-yl 2-methylenesuccinate]
8 | 12 μL min^−1 10^−6 cells | 120 min |  | 64 μL min^−1 10^−6 cells | 20 min | 37200 ng/mL | 21900 ng/mL | 8930 ng/mL | 1660 ng/mL | 476 ng/mL | 66 ng/mL | 12 ng/mL | < 4 ng/mL | < 4 ng/mL | C=C(CC(=O)O[C@@H](CC)CCCCC)C(=O)OCC(=O)O [Example 170, (S)-2-(2-methylene-4-(octan-3-yloxy)-4-oxobutanoyloxy)acetic acid]
9 | 60 μL min^−1 10^−6 cells | 28 min |  | 187 μL min^−1 10^−6 cells | 9 min | 40800 ng/mL | 17900 ng/mL | 6740 ng/mL | 2890 ng/mL | 642 ng/mL | 88 ng/mL | 20 ng/mL | 6 ng/mL | < 4 ng/mL | C=C(CC(=O)O[C@@H](CCCCCC)C(F)(F)F)C(=O)OCC(=O)O [Example 182, (S)-2-((2-methylene-4-oxo-4-((1,1,1-trifluorooctan-2-yl)oxy)butanoyl)oxy)acetic acid]
10 | 32 μL min^−1 10^−6 cells | 54 min |  | 350 μL min^−1 10^−6 cells | 5 min | 36600 ng/mL | 21400 ng/mL | 11300 ng/mL | 2910 ng/mL | 400 ng/mL | 86 ng/mL | 26 ng/mL | < 4 ng/mL | < 4 ng/mL | C=C(CC(=O)OC(C)(C)CCCCCC)C(=O)OCC(=O)O [Example 192, 2-((2-methylene-4-((2-methyloctan-2-yl)oxy)-4-oxobutanoyl)oxy)acetic acid]
11 | 16 μL min^−1 10^−6 cells | 109 min |  | 79 μL min^−1 10^−6 cells | 22 min | 28800 ng/mL | 10700 ng/mL | 4040 ng/mL | 1450 ng/mL | 134 ng/mL | 16 ng/mL | 4.1 ng/mL | < 4 ng/mL | < 4 ng/mL | C=C(CC(=O)OC(C)(C)CCCCC)C(=O)OCC(=O)O [Example 193, 2-((2-methylene-4-((2-methylheptan-2-yl)oxy)-4-oxobutanoyl)oxy)acetic acid]

Row | Structure (SMILES) | CIint (μL min^−1 10^−6 cells) (hepatocytes [1]) | half-life at 10 μM [2] | pIC50 [3] | CIint (μL min^−1 10^−6 cells) (hepatocytes [4]) | half-life at 10 μM [5] | concentration at 0.05 h [6] | concentration at 0.133 h [6] | concentration at 0.25 h [6] | concentration at 0.5 h [6] | concentration at 1 h [6] | concentration at 2 h [6] | concentration at 4 h [6] | concentration at 6 h [6] | concentration at 8 h [6]
12 | C=C(CC(=O)OC1C(C)(C)CC1(C)C)C(=O)OCC(=O)O [Example 169, 2-((2-methylene-4-oxo-4-(2,2,4,4-tetramethylcyclobutoxy)butanoyl)oxy) acetic acid] | 5 μL min^−1 10^−6 cells | 268 min |  | 38 μL min^−1 10^−6 cells | 34 min | 15600 ng/mL | 6430 ng/mL | 2800 ng/mL | 516 ng/mL | 8.6 ng/mL | 2.5 ng/mL | 1.3 ng/mL | < 0.8 ng/mL | < 0.8 ng/mL
